Test results published in PMC6718149, “Structure of GTP cyclohydrolase I from Listeria monocytogenes, a potential anti-infective drug target” (Acta Crystallographica. Section F, Structural Biology …, 2019).

T1: human GTP cyclohydrolase I (Homo sapiens, UniProt P30793)
T1 construct: made in house
T1 sequence (P30793 43-250 limits assumed): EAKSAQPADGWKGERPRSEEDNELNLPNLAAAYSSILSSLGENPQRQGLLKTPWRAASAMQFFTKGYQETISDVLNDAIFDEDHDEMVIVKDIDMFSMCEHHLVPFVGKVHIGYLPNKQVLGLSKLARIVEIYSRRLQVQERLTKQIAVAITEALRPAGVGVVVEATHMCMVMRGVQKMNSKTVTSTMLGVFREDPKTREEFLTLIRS

B1: GTP cyclohydrolase I from Listeria monocytogenes (enzyme, L. monocytogenes)
chain: EQIDKQKIADAVKVILEAVGENPDREGLIDTPMRVARMYEEVFAGLKKDPSVHFDTIFEEQHEELVLVKDIRFSSMCEHHLVPFFGVAHVAYLPQNGRVAGLSKLARVVDDVSRRPQLQERITTTVAEIMMEKLKPLGVMVIMEAEHMCMTIRGVNKPGTKTITSAVRGAFKNDDKLRSEVLALIKHN
modifications: Cys78 and Cys150 oxidized to the disulfide level (in the crystal; zinc lost)
notes: GTP cyclohydrolase I (folE), L. monocytogenes ATCC BAA-679; the natural stretch begins at Glu (first cloned triplet GAG) and runs to the stop codon; the printed Cys78 and Cys150 fit numbering with this Glu as residue 2; D5-symmetric homodecamer; also called LmGTPCHI; His6-EK-LmGTP-CHI; source: E. coli XL1-Blue (plasmid pNCO-His6-EK-LmGTP-CHI), purified (nickel-NTA agarose, Superdex 200); not …

Experiments:
[1] = molecular target: T2, GTP cyclohydrolase I from L. monocytogenes (Listeria monocytogenes serovar 1/2a, UniProt Q8Y5X1); test: Photometric GTP cyclohydrolase I inhibition assay (330 nm), IC50 determination of screening hits; type: biochemical; settings: GTP cyclohydrolase I from L. monocytogenes (red curve); 200 µM GTP, pH 7.5; calculated with DynaFit
T2 construct: made in house; host or cells: Escherichia coli XL1-Blue, plasmid pNCO-His6-EK-LmGTP-CHI
Procedure: (§1) In order to explore the druggability of the protein, we screened a small library of about 9000 highly diverse compounds (Bracher et al., 1998[▸]). Assays were run in 384-well plates and were monitored photometrically at 330 nm. Hits were rescreened against GTP cyclohydrolase I from L. monocytogenes and human GTP cyclohydrolase I, and IC50 values were determined using the photometric assay. […] Although stronger inhibitors have been reported down to a K i of 5.4 nM (Tanaka et al., 2005[▸]), all of the inhibitors reported so far are substrate or product analogs.
(§2) Assay mixtures contained 50 mM Tris hydrochloride, pH 7.5, 100 mM KCl, 200 µM GTP, and protein. They were monitored photometrically at 330 nm.
(§3) S2. High throughput screen
(§4) A substance library of 9,000 test compounds (courtesy of BASF Crop protection division, Ludwigshafen, Germany) was tested against GTP cyclohydrolase I protein from L. monocytogenes in 384 well clear bottom plates (Corning, polystyrol, flat-bottom, non-treated surface). 32 wells of each plate were used as “signal”, i.e. as positive control with enzyme and substrate, but without test compound. 32 wells of each plate were used as “control”, i.e. as negative control with substrate but without enzyme or test compound. Each of the remaining 320 wells contained app. 50 µM test compound (depending on the molecular weight of a given test substance) in 3 µL DMSO. The compounds were pipetted with a Hamilton Starlet robot (Hamilton Germany GmbH, Planegg, Germany) with a 96-tip pipetting block. Enzyme (final concentration 8.7 µM) and substrate (final concentration 200 µM) were supplied in separate solutions that both contained 50 mM Tris hydrochloride, pH 7.5 and 100 mM KCl. 30 µL per well of both solutions were filled in to the assay plates with an 8-fold dispenser (Bio Tek Germany, Bad Friedrichshall, Germany) and the plates were then centrifuged for 1 min at 1,000 rpm and room temperature. The reaction was monitored with a SpectraMax M5 plate reader photometer (Molecular Devices GmbH, Biberach a. d. Riss, Germany) at 330 nm and room temperature for 30 min. […]

[2] = molecular target: T1, human GTP cyclohydrolase I; test: Photometric counterscreen against human GTP cyclohydrolase I (330 nm); type: biochemical; settings: human GTP cyclohydrolase I (blue curve); 200 µM GTP, pH 7.5; calculated with DynaFit
Procedure: as §1, §2, §3, §4

[3] = molecular target: the molecule itself; test: crystal structure; sitting-drop vapor diffusion, 1.33 M sodium citrate, 0.1 M HEPES pH 7.3; 2.4 Å; one decamer in the asymmetric unit

Row | Molecule | IC50 [1] | IC50 [2] | stoichiometry N [3]
1 | C=CCNc1nc(N)c(C(=O)c2ccc3c(c2)OCO3)s1 [(a)] | 13 ± 1 µM | > 500 µM | 
2 | O=C1CS/C(=N/N=C/c2ccc(-c3ccc(Cl)cc3)o2)N1 [(b)] | 27 ± 6 µM | 238 ± 40 µM | 
3 | Cc1ccc(OC(=S)Nc2ccc(NC(=S)Oc3ccc(C)cc3)cc2)cc1 [(c)] | 36 ± 3 µM | 327 ± 66 µM | 
4 | B1 |  |  | 10
